Results from ChEMBL document CHEMBL1201862, “PubChem BioAssay data set” (2004).
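Results reflect a 48-hour exposure of cells in 96-well plates to compound at five concentrations. GI50: concentration for 50% inhibition of growth.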 Activity calls are given as the source filed them. No stated cut-off is given here; in the data, active = GI50 up to about 1.1 µM and inactive = higher.

Legend:
Assay in all cases: DTP human tumour cell line panel, 48 h
A549 = tested on: A549
SNB-19 = tested on: SNB-19
SK-MEL-28 = tested on: SK-MEL-28
SF-295 = tested on: SF-295
TK-10 = tested on: TK-10
RPMI-8226 = tested on: RPMI-8226
T47D = tested on: T47D
OVCAR-4 = tested on: OVCAR-4
SF-268 = tested on: SF-268
OVCAR-3 = tested on: OVCAR-3
SK-OV-3 = tested on: SK-OV-3
ACHN = tested on: ACHN
IGROV-1 = tested on: IGROV-1
NCI-H522 = tested on: NCI-H522
KM12 = tested on: KM12
MDA-MB-435 = tested on: MDA-MB-435
SF-539 = tested on: SF-539
SW-620 = tested on: SW-620
HCC 2998 = tested on: HCC 2998
SNB-75 = tested on: SNB-75

SMILES | GI50 (A549) | GI50 (SNB-19) | GI50 (SK-MEL-28) | GI50 (SF-295) | GI50 (TK-10) | GI50 (RPMI-8226) | GI50 (T47D) | GI50 (OVCAR-4) | GI50 (SF-268) | GI50 (OVCAR-3) | GI50 (SK-OV-3) | GI50 (ACHN) | GI50 (IGROV-1) | GI50 (NCI-H522) | GI50 (KM12) | GI50 (MDA-MB-435) | GI50 (SF-539) | GI50 (SW-620) | GI50 (HCC 2998) | GI50 (SNB-75)
COc1cccc2c1OC(c1ccc(Cl)cc1)C([N+](=O)[O-])=C2 (stereo unspecified) | 9.82 µM (inactive) | 4.28 µM (inactive) | 2.61 µM (inactive) | 3.1 µM (inactive) | 4.95 µM (inactive) | 1.52 µM (inactive) | 2.34 µM (inactive) | 2.17 µM (inactive) | 3.18 µM (inactive) | 2.54 µM (inactive) | 3.57 µM (inactive) | 1.46 µM (inactive) | 2.25 µM (inactive) | 1.59 µM (inactive) | 2.08 µM (inactive) | 2.42 µM (inactive) |  |  |  | 
CC1(C)CC(=O)C(C(=O)Nc2cccs2)=C(O)C1 | 32.1 µM (inactive) | 31.1 µM (inactive) | > 100 µM (inactive) | 28.9 µM (inactive) | 64.6 µM (inactive) | 31 µM (inactive) |  | 31.1 µM (inactive) | > 100 µM (inactive) | 29.4 µM (inactive) | 62.4 µM (inactive) | 32.7 µM (inactive) | 32.9 µM (inactive) | 37.2 µM (inactive) | 38.1 µM (inactive) |  | 36.2 µM (inactive) | 38.8 µM (inactive) | 48.5 µM (inactive) | 25.2 µM (inactive)
O=C1NC(Cc2ccc(O)cc2)C(=O)N2CCCC12 (stereo unspecified) | > 100 µM (inactive) | > 100 µM (inactive) | > 100 µM (inactive) | > 100 µM (inactive) | > 100 µM (inactive) | > 100 µM (inactive) |  | > 100 µM (inactive) | > 100 µM (inactive) | > 100 µM (inactive) | > 100 µM (inactive) | > 100 µM (inactive) | > 100 µM (inactive) | > 100 µM (inactive) | > 100 µM (inactive) |  | > 100 µM (inactive) | > 100 µM (inactive) | > 100 µM (inactive) | > 100 µM (inactive)
CCCC(=O)N[C@H]1C2C3CC4C5CC(C42)C1(C)C53 (stereo partly specified) | > 100 µM (inactive) | > 100 µM (inactive) | > 100 µM (inactive) | > 100 µM (inactive) | > 100 µM (inactive) | > 100 µM (inactive) |  | > 100 µM (inactive) | > 100 µM (inactive) | > 100 µM (inactive) | > 100 µM (inactive) | > 100 µM (inactive) | > 100 µM (inactive) | > 100 µM (inactive) | > 100 µM (inactive) |  | > 100 µM (inactive) | > 100 µM (inactive) | > 100 µM (inactive) | > 100 µM (inactive)
C[C@]12CCC(=O)C=C1CC[C@@H]1[C@@H]2C(=O)C[C@@]2(C)[C@H]1CC[C@]2(O)C(=O)CO [CORTISONE] | > 100 µM (inactive) | > 100 µM (inactive) | > 100 µM (inactive) | > 100 µM (inactive) | > 100 µM (inactive) | > 100 µM (inactive) |  | > 100 µM (inactive) | > 100 µM (inactive) | > 100 µM (inactive) | > 100 µM (inactive) | > 100 µM (inactive) | > 100 µM (inactive) | > 100 µM (inactive) | > 100 µM (inactive) |  | > 100 µM (inactive) | > 100 µM (inactive) | > 100 µM (inactive) | > 100 µM (inactive)
[N-]=[N+]=CC(=O)OC1CCc2ccccc21 (stereo unspecified) |  | > 100 µM (inactive) | > 100 µM (inactive) | 40.8 µM (inactive) | 59.6 µM (inactive) | > 100 µM (inactive) |  | > 100 µM (inactive) | > 100 µM (inactive) | > 100 µM (inactive) | > 100 µM (inactive) | 9.95 µM (inactive) | > 100 µM (inactive) | > 100 µM (inactive) |  | > 100 µM (inactive) |  | > 100 µM (inactive) | > 100 µM (inactive) | 
Cc1cc2c(=O)c3ccccc3oc2c(C#N)c1C | > 100 µM (inactive) | > 100 µM (inactive) | > 100 µM (inactive) | > 100 µM (inactive) | > 100 µM (inactive) | > 100 µM (inactive) | > 100 µM (inactive) | > 100 µM (inactive) | > 100 µM (inactive) |  | > 100 µM (inactive) | > 100 µM (inactive) | > 100 µM (inactive) |  | > 100 µM (inactive) |  |  | > 100 µM (inactive) | > 100 µM (inactive) | > 100 µM (inactive)
CCOC(=O)C1CC(=O)C=C2CCCCC21 (stereo unspecified) | > 100 µM (inactive) | > 100 µM (inactive) | > 100 µM (inactive) | > 100 µM (inactive) | > 100 µM (inactive) | > 100 µM (inactive) |  | > 100 µM (inactive) | > 100 µM (inactive) | > 100 µM (inactive) | > 100 µM (inactive) | > 100 µM (inactive) | > 100 µM (inactive) | > 100 µM (inactive) | > 100 µM (inactive) |  | > 100 µM (inactive) | > 100 µM (inactive) | > 100 µM (inactive) | 99.3 µM (inactive)
CN1CN(c2ccccc2)C2(CCN(CCCN(C)c3ccc(F)cc3)CC2)C1=O | 23.2 µM (inactive) | 20 µM (inactive) | 20.9 µM (inactive) | 14.9 µM (inactive) | 18.9 µM (inactive) | 10.7 µM (inactive) | 16.7 µM (inactive) |  | 20.3 µM (inactive) | 16 µM (inactive) | 17.1 µM (inactive) | 22.2 µM (inactive) | 16.5 µM (inactive) | 13.9 µM (inactive) | 16 µM (inactive) | 18.2 µM (inactive) | 22.5 µM (inactive) | 17.8 µM (inactive) |  | 16.9 µM (inactive)
Cn1ccnc1CCc1ccc(Cl)cc1Cl | > 100 µM (inactive) | > 100 µM (inactive) | > 100 µM (inactive) | 79.1 µM (inactive) | > 100 µM (inactive) | > 100 µM (inactive) |  | > 100 µM (inactive) | > 100 µM (inactive) | > 100 µM (inactive) | > 100 µM (inactive) | > 100 µM (inactive) | > 100 µM (inactive) | > 100 µM (inactive) | > 100 µM (inactive) |  | > 100 µM (inactive) | > 100 µM (inactive) | > 100 µM (inactive) | > 100 µM (inactive)
Cc1ccc(S(=O)(=O)NC(=O)NCCc2ccc(O)c(O)c2)cc1 | > 100 µM (inactive) | > 100 µM (inactive) | > 100 µM (inactive) | > 100 µM (inactive) | > 100 µM (inactive) | 38 µM (inactive) |  | > 100 µM (inactive) | > 100 µM (inactive) | > 100 µM (inactive) | > 100 µM (inactive) | > 100 µM (inactive) | > 100 µM (inactive) | > 100 µM (inactive) | > 100 µM (inactive) | 51.3 µM (inactive) | > 100 µM (inactive) | > 100 µM (inactive) | > 100 µM (inactive) | > 100 µM (inactive)
COc1ccc(OC)c(/C=N/N=C2\C(=O)Nc3c(Cl)cc(Cl)cc32)c1 | > 100 µM (inactive) | > 100 µM (inactive) | > 100 µM (inactive) | 32.1 µM (inactive) | > 100 µM (inactive) |  |  | 38.2 µM (inactive) |  | 70.3 µM (inactive) | 72.6 µM (inactive) | 52.4 µM (inactive) | 34.3 µM (inactive) |  | 35.4 µM (inactive) | 32.7 µM (inactive) | 38 µM (inactive) | 43.4 µM (inactive) | > 100 µM (inactive) | 0.505 µM (active)
CC(=O)O[C@H]1[C@@H]2[C@@H]3[C@@H](C[C@H]1C)[C@@H](C)CO[C@@]1(C)CC/C=C(/C)C[C@@H]2O[C@@H]31 | > 100 µM (inactive) | > 100 µM (inactive) | > 100 µM (inactive) | > 100 µM (inactive) | > 100 µM (inactive) | > 100 µM (inactive) |  | > 100 µM (inactive) | > 100 µM (inactive) | > 100 µM (inactive) | > 100 µM (inactive) | > 100 µM (inactive) | > 100 µM (inactive) | > 100 µM (inactive) | > 100 µM (inactive) |  | > 100 µM (inactive) | > 100 µM (inactive) | 56.2 µM (inactive) | > 100 µM (inactive)
COc1cccc(Nc2nc(C)c([N+](=O)[O-])c(Nc3cccc(OC)c3)n2)c1 | 12.1 µM (inactive) | 89.1 µM (inactive) | 39.5 µM (inactive) | < 0.01 µM (active) | 16.8 µM (inactive) | 5.06 µM (inactive) | 2.05 µM (inactive) |  | 40.4 µM (inactive) | 12.9 µM (inactive) | > 100 µM (inactive) | 19.4 µM (inactive) | 14.6 µM (inactive) | 8.18 µM (inactive) |  |  | 29 µM (inactive) | > 100 µM (inactive) |  | 0.313 µM (active)
Cc1nc2ccccc2c(=O)n1NC(=O)c1ccccc1O | > 100 µM (inactive) | > 100 µM (inactive) | > 100 µM (inactive) | > 100 µM (inactive) | > 100 µM (inactive) | > 100 µM (inactive) |  | > 100 µM (inactive) | > 100 µM (inactive) | > 100 µM (inactive) | > 100 µM (inactive) | > 100 µM (inactive) | > 100 µM (inactive) | > 100 µM (inactive) | > 100 µM (inactive) | > 100 µM (inactive) | > 100 µM (inactive) | > 100 µM (inactive) | > 100 µM (inactive) | > 100 µM (inactive)
